Entries after “also recorded” stand apart in the source; their conditions may differ.
Experiments:
Assay type in all cases: in vivo
[1] = tested on: TNF-α mRNA in mouse renal cortex; assay: kidney ischemia reperfusion: real time quantitative PCR of TNF-α; conditions: vs IR group; HEA 5, 7.5, 10 mg/kg; DPCPX 1 mg/kg; DPCPX 1 mg/kg+HEA
Experimental: (§1) Male C57BL/6 mice 20-25 g, after one week of adaptive feeding to the animals, were randomly divided into eight groups: sham-operation group, IR group, HEA 5 mg/kg group, HEA 7 mg/kg group, HEA 10 mg/kg group, DPCPX (1 mg/kg) group, DPCPX (1 mg/kg)+HEA (5 mg/kg) group and DPCPX (1 mg/kg)+HEA (7.5 mg/kg) group. […]
(§2) The MPO analysis was conducted according to the specification in the kit. 9.2.6 Real time quantitative PCR analysis of gene expression of ICAM-1, TNF-α and IL-1β; the sequence of primer used in RT-PCR reaction system is as follow:
(§3) PCR amplification reaction system: IQ SYBR Green Super mix 12.5 μL, Forward primer (10 μmo/L) 1 μL, Reverse primer (10 μmol/L) 1 μL, cDNA (water was added to dilute to same level) 10.5 μL. […] The statistics and calculation of experiment results was automatically conducted fluorescence quantitative PCR analyzing software BIO-RAD CFX Manager. Target gene mRNA expression level was calculated by 2-ΔΔCt method, and standardized using the GAPDH mRNA in corresponding specimen a standard.

[2] = tested on: rat middle cerebral artery distal obstruction cerebral ischemia model; assay: dMCAO cerebral ischemia: brain histomorphological staining HE
Experimental: Using rat middle cerebral artery distal obstruction cerebral ischemia model. (1) according to rat weight, 10% chloral hydrate (3 ml/kg) was peritoneally injected to anaesthetize. (2) the rat lie on right side and fixed, 1 cm skin incision was cut at connection of inner canthus with external canal, fascia was isolated, muscle tissue, the skull was exposed; (3) a small amount of normal saline was sucked with cotton ball to wipe the skull to ac clear view; (4) fascia was isolated under operating microscope, and the skull was exposed, a hole with diameter of 2 mm circular was drilled at a sute 1/3 of spine; (5) the excess bone debris was washed by a small amount of normal saline, the meninge was push aside, and the middle cerebral artery MCA was exposed; (6) the rat lie in supine position and fixed, an incision was made along middle of throat, and arteria carotis communis CCA on both sides were isolate, pass through with a surgical suture, not ligated temporarily; (7) the MCA was found under operating microscope, burned by a monopolar coagulator, then wash and colled with normal saline; (8) immediately after coagulation, the arteria carotis communis on both sides was ligated, and blocked for 60 min; (9) the wound on head was stitched, after 1 hour the arteria carotis communis on both sides was […], and the skin was stitched, thus the modeling was complete. […]

[3] = tested on: rat middle cerebral artery distal obstruction cerebral ischemia model; assay: dMCAO cerebral ischemia: neurologic function score
Experimental: Using rat middle cerebral artery distal obstruction cerebral ischemia model. (1) according to rat weight, 10% chloral hydrate (3 ml/kg) was peritoneally injected to anaesthetize. […]
3.3.1 the neurologic function score of the animal in conscious were scored for the rat behaviour according to the Neurological Defects 4 Score in 5 Grade Method by Longa E Z et al ^[4] : 0 point: no significant neurologic function impairment; 1 point: unable to stretch forelimbs on opposite sides; 2 point: rolling to the opposite side when walking; 3 point: duping to the opposite side when walking; 4 point: unable to spontaneously walk, and loss of consciousness.

[4] = tested on: IL-1β mRNA in mouse renal cortex; assay: kidney ischemia reperfusion: real time quantitative PCR of IL-1β; conditions: vs IR group; HEA 5, 7.5, 10 mg/kg; DPCPX 1 mg/kg; DPCPX 1 mg/kg+HEA
Experimental: as §1, §2, §3

[5] = tested on: ICAM-1 mRNA in mouse renal cortex; assay: kidney ischemia reperfusion: real time quantitative PCR of ICAM-1; conditions: vs IR group; HEA 5, 7.5, 10 mg/kg; DPCPX 1 mg/kg; DPCPX 1 mg/kg+HEA
Experimental: as §1, §2, §3

[6] = tested on: mouse sleep induced by pentobarbital sodium; assay: sleep induced by threshold dose of pentobarbital sodium
Experimental: Male ICR mice were randomly divided into four groups, respectively control group, positivediazepam (1 mg/kg) group, HEA (25 mg/kg) group and DPCPX+HEA (2 mg/kg+25 mg/kg) group. […]
Regarding the mouse righting reflex disappear for 1 min within 15 min as the hypnagogic criterion, sleep latency and sleep duration were recorded for the mice in each group.

## CCCn1c(=O)c2[nH]c(C3CCCC3)nc2n(CCC)c1=O [DPCPX, reference compound]
[1]
  TNF-α mRNA expression in renal cortex: significantly increase
[2]; DPCPX 1 mg/kg ip + HEA 7.5 mg/kg ip
  effect of DPCPX on brain protective effect of HEA (HE staining): blocking the brain protective effect of the HAE
[3]; HEA 7.5 mg/kg + DPCPX 1 mg/kg ip, all dMCAO readouts
  antagonism of the protective effects of HEA in dMCAO: may be antagonized
[4]
  IL-1β mRNA expression in renal cortex: significantly increase
[5]
  ICAM-1 mRNA expression in renal cortex: not statistically significant
[6]; DPCPX+HEA 2 mg/kg+25 mg/kg
  effect of adenosine receptor antagonist on hypnosis effect of the HEA: hypnosis effect of the HEA is significantly inhibited

## OCCNc1ncnc2c1ncn2[C@@H]1O[C@H](CO)[C@@H](O)[C@H]1O [HEA, N(6)-(2-hydroxyethyl)-adenosine]
[1]
  TNF-α mRNA expression in renal cortex: significantly reduce the high expression
[2]; dMCAO rat, HEA 7.5 mg/kg ip, vs model group
  brain histomorphology (HE staining): reduce the cerebral cortex tissue structure loosening caused by ischemia; also recorded: improve cell swelling degree and nuclear aberration, and increases cell number
[3]; dMCAO rat, HEA 5, 7.5, 12 mg/kg ip (7.5 mg/kg) 30 min before operation, vs model group
  neurologic function score: significantly improve neurological symptom of dMCAO rat; also recorded: significantly improve neurological function of the injured brain
[4]
  IL-1β mRNA expression in renal cortex: significantly reduce the high expression
[5]
  ICAM-1 mRNA expression in renal cortex: significantly reduce the high expression
[6]; HEA 25 mg/kg, sc, pentobarbital sodium 50 mg/kg
  sleep time induced by threshold dose of pentobarbital sodium: extended sleep time of the mice induced by threshold dose of pentobarbital sodium to a certain degree; also recorded: extends mouse sleep time induced by threshold dose of pentobarbital sodium to a certain degree
[6]; HEA 25 mg/kg, sc, pentobarbital sodium 50 mg/kg, vs control group
  sleep latency: no statistical difference in sleep latency; also recorded: no significant effect on sleep latency

— patent US10479814B2, “Adenosine receptor activation reagent and the uses of thereof” (Zhejiang Subtropical Crops Research Institute, priority 2014, dated 2019)
